This passage reports Kd results from PMC2925389, “Pre-Steady-State Kinetic Analysis of Truncated and Full-Length Saccharomyces cerevisiae DNA Polymerase Eta” (Journal of Nucleic Acids, 2010).

The target in assay [1] is T1, truncated yPolη (Saccharomyces cerevisiae, UniProt Q04049).
T1 construct: gene RAD30; catalytic core (polymerase domain) 1-513, lacks C-terminal residues 514-632; N-terminal tag MGSSH6SSGLVPRGSH
T1 sequence (Q04049 1-513): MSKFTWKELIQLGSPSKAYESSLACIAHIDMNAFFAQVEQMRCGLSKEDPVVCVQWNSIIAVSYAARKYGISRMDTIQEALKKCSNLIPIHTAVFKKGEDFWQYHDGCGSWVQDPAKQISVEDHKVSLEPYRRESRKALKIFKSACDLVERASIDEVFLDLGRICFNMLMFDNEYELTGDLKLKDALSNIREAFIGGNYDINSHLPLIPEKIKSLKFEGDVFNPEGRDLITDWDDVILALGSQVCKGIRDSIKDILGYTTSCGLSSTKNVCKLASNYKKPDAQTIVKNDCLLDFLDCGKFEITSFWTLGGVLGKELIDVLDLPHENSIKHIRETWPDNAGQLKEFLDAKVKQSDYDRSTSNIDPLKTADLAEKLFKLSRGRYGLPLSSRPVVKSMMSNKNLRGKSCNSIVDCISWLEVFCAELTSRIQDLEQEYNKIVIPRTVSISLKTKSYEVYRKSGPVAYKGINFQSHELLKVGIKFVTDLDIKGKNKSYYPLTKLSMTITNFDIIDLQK
Put plainly: pre-steady-state single-turnover nucleotide incorporation, rapid chemical quench. The format is biochemical. The following applies: 5 mM MgCl2, pH 7.5, 23°C.

Assay [2] deals with T2, full-length yPolη (Saccharomyces cerevisiae, UniProt Q04049).
T2 construct: gene RAD30; full-length, residues 1-632, expressed and purified from yeast
T2 sequence (Q04049 1-632): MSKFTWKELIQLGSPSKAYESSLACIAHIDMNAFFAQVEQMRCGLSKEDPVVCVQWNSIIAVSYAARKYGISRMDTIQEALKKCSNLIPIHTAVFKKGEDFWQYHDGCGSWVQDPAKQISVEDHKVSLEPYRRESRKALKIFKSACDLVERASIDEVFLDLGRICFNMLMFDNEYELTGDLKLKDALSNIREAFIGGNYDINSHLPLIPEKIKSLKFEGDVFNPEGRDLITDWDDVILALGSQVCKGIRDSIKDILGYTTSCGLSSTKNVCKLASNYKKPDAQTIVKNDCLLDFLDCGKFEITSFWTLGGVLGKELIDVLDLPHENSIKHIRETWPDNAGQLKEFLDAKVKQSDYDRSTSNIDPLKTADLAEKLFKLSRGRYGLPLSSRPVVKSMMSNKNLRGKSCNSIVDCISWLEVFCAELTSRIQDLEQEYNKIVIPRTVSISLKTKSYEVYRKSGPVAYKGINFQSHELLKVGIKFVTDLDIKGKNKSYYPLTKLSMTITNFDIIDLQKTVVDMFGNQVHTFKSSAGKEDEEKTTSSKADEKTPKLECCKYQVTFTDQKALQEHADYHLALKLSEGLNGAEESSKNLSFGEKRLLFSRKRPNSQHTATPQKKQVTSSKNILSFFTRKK
The assay is described as above. The format is biochemical. To be noted: 5 mM MgCl2, pH 7.5, 23°C. From the text:
pre-steady-state single-turnover nucleotide incorporation, rapid chemical quench on full-length yPolη

Where [3] appears, read: mismatched dNTP opposite template dA (D-1 21/41-mer DNA).
Where [4] appears, read: correct dNTP opposite template dA (D-1 21/41-mer DNA).

On to `Nc1ncnc2c1ncn2[C@H]1C[C@H](O)[C@@H](COP(=O)(O)OP(=O)(O)OP(=O)(O)O)O1` [dATP], for which the Kd in assay [1] (correct dNTP opposite template dT (D-7 21/41-mer DNA)) came out at 17 ± 3 µM; in assay [2] (setting [3]), 156 ± 7 µM.
In the case of `Nc1ccn([C@H]2C[C@H](O)[C@@H](COP(=O)(O)OP(=O)(O)OP(=O)(O)O)O2)c(=O)n1` [dCTP], the Kd in assay [1] (correct dNTP opposite template dG (D-6 21/41-mer DNA)) worked out at 11.2 ± 0.8 µM; in assay [2] (setting [3]) it was 70 ± 10 µM.
In the case of `Cc1cn([C@H]2C[C@H](O)[C@@H](COP(=O)(O)OP(=O)(O)OP(=O)(O)O)O2)c(=O)[nH]c1=O` [dTTP], the figures for the Kd in assay [1] (setting [4]) and in assay [2] (setting [4]) were 15 ± 2 µM and 40 ± 10 µM, respectively.
In the case of `Nc1nc2c(ncn2[C@H]2C[C@H](O)[C@@H](COP(=O)(O)OP(=O)(O)OP(=O)(O)O)O2)c(=O)[nH]1` [dGTP], the Kd is 6.8 ± 0.4 µM in assay [1] (correct dNTP opposite template dC (D-8 21/41-mer DNA)) and 170 ± 40 µM in assay [2] (setting [3]).
